Measured values as given in patent US20230242585A1, “IMMUNOMODULATORS” (Bristol-Myers Squibb Company, priority 2020, published 2023).
Starred links: 1 amine or outer side, 2 acyl side, 3 side chain; linkers in the order of their positions; H or OH if unused. Positions of bridges follow the written chain, without caps; N, C: chain ends. Non-standard residues stand in square brackets, D forms with d. Residues, ends and D or L forms follow the SMILES beside them. X53 = O=C([C@H](CCNC[C@H](O)[C@@H](O)[C@H](O)C(O)CO[C@H]1O[C@H](CO)[C@H](O)[C@H](O)[C@H]1O)N[*:1])[*:2]; X39 = O=C([C@H](CNC[C@H](O)[C@@H](O)[C@H](O)C(O)CO[C@H]1O[C@H](CO)[C@H](O)[C@H](O)[C@H]1O)N[*:1])[*:2]; X54 = O=C([C@H](CCNC[C@@H](O)C(O)[C@H](O[C@@H]1OC(CO)[C@@H](O)C(O)C1O)C(O)CO)N[*:1])[*:2]; X42 = O=C([C@H](CNC[C@@H](O)C(O)[C@H](O[C@@H]1OC(CO)[C@@H](O)C(O)C1O)C(O)CO)N[*:1])[*:2]; X44 = O=C([C@H](CCNC[C@@H](O)[C@H](O)[C@@H](O)[C@@H](O)CO)N[*:1])[*:2]; X43 = O=C([C@H](CNC[C@@H](O)[C@H](O)[C@@H](O)[C@@H](O)CO)N[*:1])[*:2]; X9 = O=C([C@H](CCNC[C@@H](O)[C@@H](O)[C@@H](O)[C@H](O)CO)N[*:1])[*:2]; X66 = C[C@H](O)[C@H](O)[C@@H](O)[C@@H](O)CNCC[C@H](N[*:1])C(=O)[*:2]; X8 = O=C([C@H](CNC[C@@H](O)[C@@H](O)[C@@H](O)[C@H](O)CO)N[*:1])[*:2]; X52 = C[C@H](O)[C@H](O)[C@@H](O)[C@@H](O)CNC[C@H](N[*:1])C(=O)[*:2]; Trp(1-CH2COOH) = N[C@@H](Cc1cn(CC(=O)O)c2ccccc12)C(=O)O; X37 = O=C([C@H](CNCC[C@@H](O)C(O)CO)N[*:1])[*:2]; X38 = O=C([C@H](CCNCC[C@H](O)C(O)CO)N[*:1])[*:2]; Hyp = O=C(O)[C@@H]1C[C@@H](O)CN1; NMeNle = CCCC[C@H](NC)C(=O)O; NMeA = CN[C@@H](C)C(=O)O; Dab = NCC[C@H](N)C(=O)O

These compounds were tested against T1, PD-1/PD-L1 (Homo sapiens, UniProt Q9NZQ7) (assay: PD-1/PD-L1 Homogenous Time-Resolved Fluorescence (HTRF) binding assay). Details: PD-L1-His 10 nM, PD-1-Ig 20 nM.
T1 construct: TVMV protease site (linker) (C); made in house; host or cells: HEK293T cells
T1 sequence (Q9NZQ7 18-239): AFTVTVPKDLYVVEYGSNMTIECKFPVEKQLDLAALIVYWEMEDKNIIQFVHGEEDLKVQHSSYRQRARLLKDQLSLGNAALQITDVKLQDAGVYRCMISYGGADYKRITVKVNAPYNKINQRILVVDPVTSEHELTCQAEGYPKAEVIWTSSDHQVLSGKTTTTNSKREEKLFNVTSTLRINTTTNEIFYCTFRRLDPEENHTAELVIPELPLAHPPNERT
Summary of the method: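 Compounds preincubated 15 min with PD-L1-His (residues 18-239, 10 nM) in dPBS with 0.1% BSA, 0.05% Tween-20, then PD-1-Ig (residues 25-167, 20 nM) for 15 min. Eu-cryptate anti-Ig (1 nM) and APC anti-His (20 nM) equilibrated 30 min; 665/620 nm ratio read, IC50 derived.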
An IC50 of 2.7 nM was found for `CCCC[C@H]1C(=O)N(C)[C@@H](CCCC)C(=O)N[C@@H](CC(C)C)C(=O)N[C@H](C(=O)NCC(N)=O)CSCC(=O)N[C@@H](Cc2ccc(O)cc2)C(=O)N(C)[C@@H](C)C(=O)N[C@@H](CC(N)=O)C(=O)N2CCC[C@H]2C(=O)N[C@@H](CNC[C@@H](O)[C@H](O)[C@@H](O)[C@@H](O)CO)C(=O)N[C@@H](CC(C)C)C(=O)N2C[C@H](O)C[C@H]2C(=O)N[C@@H](Cc2c[nH]c3ccccc23)C(=O)N[C@@H](CCNC[C@@H](O)[C@H](O)[C@@H](O)[C@@H](O)CO)C(=O)N[C@@H](Cc2cn(CC(=O)O)c3ccccc23)C(=O)N1C` [Example 2034] ({CH2CO}-Y[NMeA]NP[X43]L[Hyp]W[X44][Trp(1-CH2COOH)][NMeNle][NMeNle]LCG-NH2; thioether N-14) in this work.
An IC50 of 4.9 nM was found for `CCCC[C@H]1C(=O)N(C)[C@@H](CCCC)C(=O)N[C@@H](CC(C)C)C(=O)N[C@H](C(=O)NCC(N)=O)CSCC(=O)N[C@@H](Cc2ccc(O)cc2)C(=O)N(C)[C@@H](C)C(=O)N[C@@H](CC(N)=O)C(=O)N2CCC[C@H]2C(=O)N[C@@H](CNC[C@@H](O)[C@@H](O)[C@@H](O)[C@H](O)CO)C(=O)N[C@@H](CC(C)C)C(=O)N2C[C@H](O)C[C@H]2C(=O)N[C@@H](Cc2c[nH]c3ccccc23)C(=O)N[C@@H](CCNC[C@@H](O)[C@@H](O)[C@@H](O)[C@H](O)CO)C(=O)N[C@@H](Cc2cn(CC(=O)O)c3ccccc23)C(=O)N1C` [Example 2036] ({CH2CO}-Y[NMeA]NP[X8]L[Hyp]W[X9][Trp(1-CH2COOH)][NMeNle][NMeNle]LCG-NH2; thioether N-14) in this work.
An IC50 of 11 nM was found for `CCCC[C@H]1C(=O)N(C)[C@@H](CCCC)C(=O)N[C@@H](CC(C)C)C(=O)N[C@H](C(=O)NCC(N)=O)CSCC(=O)N[C@@H](Cc2ccc(O)cc2)C(=O)N(C)[C@@H](C)C(=O)N[C@@H](CC(N)=O)C(=O)N2CCC[C@H]2C(=O)N[C@@H](CNC[C@H](O)[C@@H](O)[C@H](O)C(O)CO[C@H]2O[C@H](CO)[C@H](O)[C@H](O)[C@H]2O)C(=O)N[C@@H](CC(C)C)C(=O)N2C[C@H](O)C[C@H]2C(=O)N[C@@H](Cc2c[nH]c3ccccc23)C(=O)N[C@@H](CCN)C(=O)N[C@@H](Cc2cn(CC(=O)O)c3ccccc23)C(=O)N1C` (stereo partly drawn) [Example 2037] ({CH2CO}-Y[NMeA]NP[X39]L[Hyp]W[Dab][Trp(1-CH2COOH)][NMeNle][NMeNle]LCG-NH2; thioether N-14) in this work.
An IC50 of 6.7 nM was found for `CCCC[C@H]1C(=O)N(C)[C@@H](CCCC)C(=O)N[C@@H](CC(C)C)C(=O)N[C@H](C(=O)NCC(N)=O)CSCC(=O)N[C@@H](Cc2ccc(O)cc2)C(=O)N(C)[C@@H](C)C(=O)N[C@@H](CC(N)=O)C(=O)N2CCC[C@H]2C(=O)N[C@@H](CNCC[C@@H](O)C(O)CO)C(=O)N[C@@H](CC(C)C)C(=O)N2C[C@H](O)C[C@H]2C(=O)N[C@@H](Cc2c[nH]c3ccccc23)C(=O)N[C@@H](CCNCC[C@H](O)C(O)CO)C(=O)N[C@@H](Cc2cn(CC(=O)O)c3ccccc23)C(=O)N1C` (stereo partly drawn) [Example 2038] ({CH2CO}-Y[NMeA]NP[X37]L[Hyp]W[X38][Trp(1-CH2COOH)][NMeNle][NMeNle]LCG-NH2; thioether N-14) in this work.
An IC50 of 5.2 nM was found for `CCCC[C@H]1C(=O)N(C)[C@@H](CCCC)C(=O)N[C@@H](CC(C)C)C(=O)N[C@H](C(=O)NCC(N)=O)CSCC(=O)N[C@@H](Cc2ccc(O)cc2)C(=O)N(C)[C@@H](C)C(=O)N[C@@H](CC(N)=O)C(=O)N2CCC[C@H]2C(=O)N[C@@H](CNC[C@@H](O)C(O)[C@H](O[C@@H]2OC(CO)[C@@H](O)C(O)C2O)C(O)CO)C(=O)N[C@@H](CC(C)C)C(=O)N2C[C@H](O)C[C@H]2C(=O)N[C@@H](Cc2c[nH]c3ccccc23)C(=O)N[C@@H](CCN)C(=O)N[C@@H](Cc2cn(CC(=O)O)c3ccccc23)C(=O)N1C` (stereo partly drawn) [Example 2039] ({CH2CO}-Y[NMeA]NP[X42]L[Hyp]W[Dab][Trp(1-CH2COOH)][NMeNle][NMeNle]LCG-NH2; thioether N-14) in this work.
An IC50 of 6.3 nM was found for `CCCC[C@H]1C(=O)N(C)[C@@H](CCCC)C(=O)N[C@@H](CC(C)C)C(=O)N[C@H](C(=O)NCC(N)=O)CSCC(=O)N[C@@H](Cc2ccc(O)cc2)C(=O)N(C)[C@@H](C)C(=O)N[C@@H](CC(N)=O)C(=O)N2CCC[C@H]2C(=O)N[C@@H](CNC[C@@H](O)C(O)[C@H](O[C@@H]2OC(CO)[C@@H](O)C(O)C2O)C(O)CO)C(=O)N[C@@H](CC(C)C)C(=O)N2C[C@H](O)C[C@H]2C(=O)N[C@@H](Cc2c[nH]c3ccccc23)C(=O)N[C@@H](CCNC[C@@H](O)C(O)[C@H](O[C@@H]2OC(CO)[C@@H](O)C(O)C2O)C(O)CO)C(=O)N[C@@H](Cc2cn(CC(=O)O)c3ccccc23)C(=O)N1C` (stereo partly drawn) [Example 2040] ({CH2CO}-Y[NMeA]NP[X42]L[Hyp]W[X54][Trp(1-CH2COOH)][NMeNle][NMeNle]LCG-NH2; thioether N-14) in this work.
An IC50 of 7.2 nM was found for `CCCC[C@H]1C(=O)N(C)[C@@H](CCCC)C(=O)N[C@@H](CC(C)C)C(=O)N[C@H](C(=O)NCC(N)=O)CSCC(=O)N[C@@H](Cc2ccc(O)cc2)C(=O)N(C)[C@@H](C)C(=O)N[C@@H](CC(N)=O)C(=O)N2CCC[C@H]2C(=O)N[C@@H](CNC[C@H](O)[C@@H](O)[C@H](O)C(O)CO[C@H]2O[C@H](CO)[C@H](O)[C@H](O)[C@H]2O)C(=O)N[C@@H](CC(C)C)C(=O)N2C[C@H](O)C[C@H]2C(=O)N[C@@H](Cc2c[nH]c3ccccc23)C(=O)N[C@@H](CCNC[C@H](O)[C@@H](O)[C@H](O)C(O)CO[C@H]2O[C@H](CO)[C@H](O)[C@H](O)[C@H]2O)C(=O)N[C@@H](Cc2cn(CC(=O)O)c3ccccc23)C(=O)N1C` (stereo partly drawn) [Example 2041] ({CH2CO}-Y[NMeA]NP[X39]L[Hyp]W[X53][Trp(1-CH2COOH)][NMeNle][NMeNle]LCG-NH2; thioether N-14) in this work.
An IC50 of 6.7 nM was found for `CCCC[C@H]1C(=O)N(C)[C@@H](CCCC)C(=O)N[C@@H](CC(C)C)C(=O)N[C@H](C(=O)NCC(N)=O)CSCC(=O)N[C@@H](Cc2ccc(O)cc2)C(=O)N(C)[C@@H](C)C(=O)N[C@@H](CC(N)=O)C(=O)N2CCC[C@H]2C(=O)N[C@@H](CNC[C@H](O)[C@H](O)[C@@H](O)[C@H](C)O)C(=O)N[C@@H](CC(C)C)C(=O)N2C[C@H](O)C[C@H]2C(=O)N[C@@H](Cc2c[nH]c3ccccc23)C(=O)N[C@@H](CCN)C(=O)N[C@@H](Cc2cn(CC(=O)O)c3ccccc23)C(=O)N1C` [Example 2042] ({CH2CO}-Y[NMeA]NP[X52]L[Hyp]W[Dab][Trp(1-CH2COOH)][NMeNle][NMeNle]LCG-NH2; thioether N-14) in this work.
An IC50 of 12 nM was found for `CCCC[C@H]1C(=O)N(C)[C@@H](CCCC)C(=O)N[C@@H](CC(C)C)C(=O)N[C@H](C(=O)NCC(N)=O)CSCC(=O)N[C@@H](Cc2ccc(O)cc2)C(=O)N(C)[C@@H](C)C(=O)N[C@@H](CC(N)=O)C(=O)N2CCC[C@H]2C(=O)N[C@@H](CNC[C@H](O)[C@H](O)[C@@H](O)[C@H](C)O)C(=O)N[C@@H](CC(C)C)C(=O)N2C[C@H](O)C[C@H]2C(=O)N[C@@H](Cc2c[nH]c3ccccc23)C(=O)N[C@@H](CCNC[C@H](O)[C@H](O)[C@@H](O)[C@H](C)O)C(=O)N[C@@H](Cc2cn(CC(=O)O)c3ccccc23)C(=O)N1C` [Example 2044] ({CH2CO}-Y[NMeA]NP[X52]L[Hyp]W[X66][Trp(1-CH2COOH)][NMeNle][NMeNle]LCG-NH2; thioether N-14) in this work.
